From the supplement of paper PMC8967900

Key:
Experiment in all cases: selective drug sensitivity score (sDSS, relative to normal bone marrow) (sDSS (score)); higher = more potent and effective on the cell line relative to normal bone marrow cells
Settings in all cases: 72 h
[1] = tested on: COG-LL-355h
[2] = tested on: CCRF-HSB2
[3] = tested on: KASUMI-2
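Also: ALL cell lines in 384-well plates, five doses spanning 10,000-fold, each plate scaled between vehicle and 100 µmol/L benzalkonium chloride controls, sDSS an adapted area-under-curve metric.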

SMILES | selective drug sensitivity score [1] | selective drug sensitivity score [2] | selective drug sensitivity score [3]
CNS(=O)(=O)Nc1nccc(Cc2c(C)c3ccc(Oc4ncccn4)cc3oc2=O)c1F (top concentration 1000 nM) | 0.02 | -1.18 | 1.12
C[C@H]1Oc2cc(cnc2N)-c2c(nn(C)c2C#N)CN(C)C(=O)c2ccc(F)cc21 (top concentration 1000 nM) | 2.18 | -0.72 | 4.68
CCc1cncnc1N1CCN(Cc2nc3cc(C(F)(F)F)ccc3[nH]2)CC1 (top concentration 10000 nM) | -0.14 | 4.16 | 2.76
CN(C)CC#Cc1ccc(OCCCc2sc(N3CCc4cccc(C(=O)Nc5nc6ccccc6s5)c4C3)nc2C(=O)O)c(F)c1 (top concentration 10000 nM) | 27.2 | 17.1 | 5.86
O=C(NC[C@H](O)CN1CCc2ccccc2C1)c1cc(NC2COC2)ncn1 (top concentration 10000 nM) | -0.06 | 1.64 | -0.06
O=C1Cc2cc(C(=O)NC3C[C@H]4CC[C@@H](C3)N4S(=O)(=O)CC3CCN(CCCC(F)(F)F)CC3)c(Cl)cc2N1 (stereo partly drawn) (top concentration 10000 nM) | 0.9 | 0 | 0
CC/C(=C(\c1ccc(O)cc1)c1ccc(OCCN(C)C)cc1)c1ccccc1 [4-hydroxytamoxifen] (top concentration 10000 nM) | 1.72 | 1.82 | -3.78
COCC1(CO)C(=O)C2CCN1CC2 (stereo not drawn) [APR-246] (top concentration 10000 nM) | 2.44 | -1.16 | -1.16
Cc1sc2c(c1C)C(c1ccc(Cl)cc1)=N[C@@H](CC(=O)Nc1ccc(OCCOCCOCCOCCNc3cccc4c3C(=O)N(C3CCC(=O)NC3=O)C4=O)cc1)c1nnc(C)n1-2 (stereo partly drawn) [ARV-825] (top concentration 300 nM) | 10.2 | 1.14 | -4.46
COc1cc(OC2CCN(C)CC2)ccc1Nc1ncc2c(n1)n(C1CCCC1)c(=O)n2C [AZ3146] (top concentration 10000 nM) | 2.94 | 1.84 | -4.16
CN(C)CCCOc1ccc(-c2ccc3ncc4c(c3c2)n(C2CCOCC2)c(=O)n4C)cn1 [AZD0156] (top concentration 1000 nM) | 0.74 | 0.94 | 2.84
N#Cc1ccc2[nH]c(O)c(-c3ccc(CN4CCOCC4)cn3)c2c1 [AZD-1080] (top concentration 10000 nM) | 3.98 | 1.08 | 3.48
CN(C)C/C=C/C(=O)Nc1cc2c(Nc3ccc(F)c(Cl)c3)ncnc2cc1O[C@H]1CCOC1 [Afatinib] (top concentration 1000 nM) | 0.46 | 1.96 | -0.84
O=C(Nc1ccc(OC(F)(F)Cl)cc1)c1cnc(N2CC[C@@H](O)C2)c(-c2cc[nH]n2)c1 [Asciminib] (top concentration 1000 nM) | 2.02 | -1.98 | -1.98
CC[C@@H]1C(=O)N(C)c2cnc(Nc3ccc(C(=O)NC4CCN(C)CC4)cc3OC)nc2N1C1CCCC1 [BI-2536] (top concentration 1000 nM) | 4.84 | 20.1 | 14.1
Cc1ccc(NC(=O)c2ccc(CN3CC[C@H](N(C)C)C3)c(C(F)(F)F)c2)cc1Nc1nccc(-c2cncnc2)n1 [Bafetinib] (top concentration 1000 nM) | 0.8 | 9.9 | 0.3

SMILES | selective drug sensitivity score [1] | selective drug sensitivity score [2] | selective drug sensitivity score [3]
CC[C@H](NC(=O)[C@H](C)NC)C(=O)N1C[C@@H](O)C[C@H]1Cc1c(-c2[nH]c3cc(F)ccc3c2C[C@@H]2C[C@H](O)CN2C(=O)[C@H](CC)NC(=O)[C@H](C)NC)[nH]c2cc(F)ccc12 [Birinapant] (top concentration 1000 nM) | 13.3 | 5.7 | 7.8
COc1cc2nccc(Oc3ccc(NC(=O)C4(C(=O)Nc5ccc(F)cc5)CC4)cc3)c2cc1OC [Cabozantinib] (top concentration 1000 nM) | 2.18 | 1.98 | -3.62
CCCCCOC(=O)Nc1nc(=O)n([C@@H]2O[C@H](C)[C@@H](O)[C@H]2O)cc1F [Capecitabine] (top concentration 10000 nM) | -0.06 | -0.06 | -0.06
Nc1nc(Cl)nc2c1ncn2[C@H]1C[C@H](O)[C@@H](CO)O1 [Cladribine] (top concentration 1000 nM) | 0.16 | -0.04 | 6.76
CCN(CC)CCOc1ccc(/C(=C(/Cl)c2ccccc2)c2ccccc2)cc1 [Clomifene] (top concentration 10000 nM) | 0.52 | 1.52 | 0.82
CO[C@@H](C(=O)N1Cc2[nH]nc(NC(=O)c3ccc(N4CCN(C)CC4)cc3)c2C1)c1ccccc1 [Danusertib] (top concentration 10000 nM) | 3.04 | 19.8 | 9.14
CC[C@@](C)(Nc1ccnc(-c2c[nH]c3ncccc23)n1)C(=O)NCC(F)(F)F [Decernotinib] (top concentration 10000 nM) | -3.94 | 1.16 | -1.84
CN1CCN(c2ccc3nc(-c4c(N)c5c(F)cccc5[nH]c4=O)[nH]c3c2)CC1 [Dovitinib] (top concentration 10000 nM) | 3.66 | 1.86 | -0.14
CC(C)(O)CNc1nc(Nc2ccnc(C(F)(F)F)c2)nc(-c2cccc(C(F)(F)F)n2)n1 [Enasidenib] (top concentration 10000 nM) | -0.6 | -0.1 | 4
CN1CCN(c2ccc(C(=O)Nc3n[nH]c4ccc(Cc5cc(F)cc(F)c5)cc34)c(NC3CCOCC3)c2)CC1 [Entrectinib] (top concentration 1000 nM) | 1.5 | 0.9 | -1.2
CNC(=O)c1ccc(N2C(=S)N(c3ccc(C#N)c(C(F)(F)F)c3)C(=O)C2(C)C)cc1F [Enzalutamide] (top concentration 10000 nM) | -0.82 | -0.52 | -0.82
Cn1cc(C2=C(c3cn(C4CCN(Cc5ccccn5)CC4)c4ccccc34)C(=O)NC2=O)c2ccccc21 [Enzastaurin] (top concentration 10000 nM) | 6.76 | 5.06 | 2.06
NS(=O)(=O)NCCNc1nonc1/C(=N/O)Nc1ccc(F)c(Br)c1 [Epacadostat] (top concentration 10000 nM) | -0.26 | -0.26 | -0.26
CCOc1ccccc1-n1c(C(C)N2CCN(C(=O)COc3ccc(Cl)cc3)CC2)nc2ccccc2c1=O (stereo not drawn) [Erastin] (top concentration 10000 nM) | 14.4 | 10.6 | 19.4
COc1cc(OC)cc(N(CCNC(C)C)c2ccc3ncc(-c4cnn(C)c4)nc3c2)c1 [Erdafitinib] (top concentration 1000 nM) | -0.56 | 3.04 | -0.56
